Experimental data published in ChEMBL document CHEMBL5442175, “EUbOPEN Chemogenomics Library - PDSP Secondary Binding” (2024).
Counter-ions that a name gives are not always drawn.

Legend:
D(1B) dopamine receptor = D(1B) dopamine receptor (Homo sapiens, UniProt P21918); assay: (§1) PDSP Secondary Binding target: DRD5 - Compounds are tested at 10 uM concentration, plate are incubated at room temperature in the dark for 90 minutes. Reaction are stopped by vacuum filtration onto 0.3% polyethyleneimine soaked filter mats using Filtermate harvester. Scintillation cocktail is then melted onto microwave-dried filters on a hot plate and the radio activity is counted in Microbia counter.
Sequence of D(1B) dopamine receptor (P21918 whole entry): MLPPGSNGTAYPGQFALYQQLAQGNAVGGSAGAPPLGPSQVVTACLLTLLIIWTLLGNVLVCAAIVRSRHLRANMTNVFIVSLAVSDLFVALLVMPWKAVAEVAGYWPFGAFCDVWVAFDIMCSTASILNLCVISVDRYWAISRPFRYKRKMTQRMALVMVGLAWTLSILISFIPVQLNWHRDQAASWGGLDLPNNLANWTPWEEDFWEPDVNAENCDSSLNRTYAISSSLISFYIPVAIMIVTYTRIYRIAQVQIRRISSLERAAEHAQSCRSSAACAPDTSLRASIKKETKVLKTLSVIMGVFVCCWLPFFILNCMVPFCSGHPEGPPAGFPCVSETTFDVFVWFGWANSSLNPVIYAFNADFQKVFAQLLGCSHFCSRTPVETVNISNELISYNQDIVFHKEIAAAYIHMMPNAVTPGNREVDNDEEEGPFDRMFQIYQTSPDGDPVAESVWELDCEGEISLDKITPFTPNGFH

[1] = target: Sodium-dependent noradrenaline transporter (Homo sapiens, UniProt P23975); assay: as §1, with “SLC6A2” for “DRD5”
Sequence of Sodium-dependent noradrenaline transporter (P23975 whole entry): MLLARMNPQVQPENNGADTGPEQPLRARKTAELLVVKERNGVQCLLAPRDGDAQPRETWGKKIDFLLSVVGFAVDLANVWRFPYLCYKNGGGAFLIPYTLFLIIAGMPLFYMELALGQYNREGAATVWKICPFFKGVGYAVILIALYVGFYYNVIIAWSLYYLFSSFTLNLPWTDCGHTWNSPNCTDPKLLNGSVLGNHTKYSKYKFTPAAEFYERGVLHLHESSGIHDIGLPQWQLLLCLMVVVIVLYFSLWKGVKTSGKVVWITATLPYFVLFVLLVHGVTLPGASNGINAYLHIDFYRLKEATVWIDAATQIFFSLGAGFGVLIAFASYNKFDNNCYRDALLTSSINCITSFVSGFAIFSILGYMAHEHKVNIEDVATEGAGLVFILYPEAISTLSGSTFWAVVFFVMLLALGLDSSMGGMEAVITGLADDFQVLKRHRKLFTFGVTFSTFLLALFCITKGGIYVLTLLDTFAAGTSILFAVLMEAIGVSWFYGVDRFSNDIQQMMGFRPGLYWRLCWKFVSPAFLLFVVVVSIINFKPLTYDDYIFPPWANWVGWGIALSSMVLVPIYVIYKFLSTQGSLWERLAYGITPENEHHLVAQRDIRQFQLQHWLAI

[2] = target: Sodium-dependent dopamine transporter (Homo sapiens, UniProt Q01959); assay: as §1, with “SLC6A3” for “DRD5”
Sequence of Sodium-dependent dopamine transporter (Q01959 whole entry): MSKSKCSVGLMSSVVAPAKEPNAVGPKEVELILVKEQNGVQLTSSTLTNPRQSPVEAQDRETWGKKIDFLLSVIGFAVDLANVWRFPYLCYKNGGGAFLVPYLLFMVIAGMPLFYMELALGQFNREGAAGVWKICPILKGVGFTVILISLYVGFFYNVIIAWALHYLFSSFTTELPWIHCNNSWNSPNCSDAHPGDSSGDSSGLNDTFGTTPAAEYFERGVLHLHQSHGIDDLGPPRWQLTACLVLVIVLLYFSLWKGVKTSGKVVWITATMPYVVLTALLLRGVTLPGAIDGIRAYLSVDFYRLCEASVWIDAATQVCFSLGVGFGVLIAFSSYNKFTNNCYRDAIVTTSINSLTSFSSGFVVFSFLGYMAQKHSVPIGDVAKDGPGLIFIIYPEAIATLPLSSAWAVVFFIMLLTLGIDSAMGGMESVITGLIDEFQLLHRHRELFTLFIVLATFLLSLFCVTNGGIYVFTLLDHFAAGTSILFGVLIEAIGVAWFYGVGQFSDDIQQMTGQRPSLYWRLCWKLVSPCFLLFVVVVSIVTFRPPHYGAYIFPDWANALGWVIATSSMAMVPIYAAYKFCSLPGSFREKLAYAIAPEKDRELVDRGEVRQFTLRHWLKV

[3] = target: Sigma intracellular receptor 2 (Homo sapiens, UniProt Q5BJF2); assay: as §1, with “TMEM97” for “DRD5”
Sequence of Sigma intracellular receptor 2 (Q5BJF2 whole entry): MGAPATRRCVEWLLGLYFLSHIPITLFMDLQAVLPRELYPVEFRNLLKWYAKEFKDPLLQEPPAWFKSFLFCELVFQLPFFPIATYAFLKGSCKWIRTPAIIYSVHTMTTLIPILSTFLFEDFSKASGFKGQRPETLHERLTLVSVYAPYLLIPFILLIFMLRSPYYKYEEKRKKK

[4] = target: Kappa-type opioid receptor (Homo sapiens, UniProt P41145); assay: as §1, with “OPRK1” for “DRD5”
Mu-type opioid receptor = Mu-type opioid receptor (Homo sapiens, UniProt P35372); assay: as §1, with “OPRM1” for “DRD5”
Sequence of Mu-type opioid receptor (P35372 whole entry): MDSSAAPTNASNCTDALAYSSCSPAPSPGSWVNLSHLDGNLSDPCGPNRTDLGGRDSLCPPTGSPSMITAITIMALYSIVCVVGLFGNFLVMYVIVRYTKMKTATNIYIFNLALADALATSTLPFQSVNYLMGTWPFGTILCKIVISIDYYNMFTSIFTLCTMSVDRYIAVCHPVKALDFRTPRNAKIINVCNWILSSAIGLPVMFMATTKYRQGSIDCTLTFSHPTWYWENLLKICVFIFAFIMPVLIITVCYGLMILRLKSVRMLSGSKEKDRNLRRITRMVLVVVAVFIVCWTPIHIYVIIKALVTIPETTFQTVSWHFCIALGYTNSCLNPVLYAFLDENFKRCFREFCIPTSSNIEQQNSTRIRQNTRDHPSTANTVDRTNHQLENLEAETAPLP

[5] = target: 5-hydroxytryptamine receptor 2B (Homo sapiens, UniProt P41595); assay: as §1, with “HTR2B” for “DRD5”
[6] = target: T1, 5-hydroxytryptamine receptor 2C (Homo sapiens, UniProt P28335); assay: as §1, with “HTR2C” for “DRD5”
T1 sequence (P28335 whole entry): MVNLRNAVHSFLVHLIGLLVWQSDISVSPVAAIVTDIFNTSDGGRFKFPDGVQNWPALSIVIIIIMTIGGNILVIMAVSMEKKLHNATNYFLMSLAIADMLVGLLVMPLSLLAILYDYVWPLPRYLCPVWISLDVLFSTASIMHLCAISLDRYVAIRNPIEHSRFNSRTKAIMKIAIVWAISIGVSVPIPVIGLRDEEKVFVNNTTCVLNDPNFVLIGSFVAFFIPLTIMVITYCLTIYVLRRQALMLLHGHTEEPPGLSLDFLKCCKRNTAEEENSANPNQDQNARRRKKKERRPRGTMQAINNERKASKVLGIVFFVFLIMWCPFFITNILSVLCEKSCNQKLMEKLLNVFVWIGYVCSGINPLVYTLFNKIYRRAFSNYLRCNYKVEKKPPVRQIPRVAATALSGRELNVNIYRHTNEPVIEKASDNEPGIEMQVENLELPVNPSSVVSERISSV

[7] = target: 5-hydroxytryptamine receptor 2A (Homo sapiens, UniProt P28223); assay: as §1, with “HTR2A” for “DRD5”
Sequence of 5-hydroxytryptamine receptor 2A (P28223 whole entry): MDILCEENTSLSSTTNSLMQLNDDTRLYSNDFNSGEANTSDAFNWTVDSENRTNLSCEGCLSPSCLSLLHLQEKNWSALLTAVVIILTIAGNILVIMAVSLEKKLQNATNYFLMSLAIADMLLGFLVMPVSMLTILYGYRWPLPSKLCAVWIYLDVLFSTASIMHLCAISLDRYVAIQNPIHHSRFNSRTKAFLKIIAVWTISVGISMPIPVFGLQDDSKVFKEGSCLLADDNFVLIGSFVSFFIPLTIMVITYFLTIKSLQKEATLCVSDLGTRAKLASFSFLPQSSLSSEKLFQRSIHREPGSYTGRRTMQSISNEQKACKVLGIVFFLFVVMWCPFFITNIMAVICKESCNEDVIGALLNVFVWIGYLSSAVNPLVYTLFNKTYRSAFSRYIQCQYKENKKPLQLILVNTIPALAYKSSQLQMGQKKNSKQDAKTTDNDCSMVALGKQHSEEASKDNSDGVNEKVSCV

[8] = target: T2, Muscarinic acetylcholine receptor M5 (Homo sapiens, UniProt P08912); assay: as §1, with “CHRM5” for “DRD5”
T2 sequence (P08912 whole entry): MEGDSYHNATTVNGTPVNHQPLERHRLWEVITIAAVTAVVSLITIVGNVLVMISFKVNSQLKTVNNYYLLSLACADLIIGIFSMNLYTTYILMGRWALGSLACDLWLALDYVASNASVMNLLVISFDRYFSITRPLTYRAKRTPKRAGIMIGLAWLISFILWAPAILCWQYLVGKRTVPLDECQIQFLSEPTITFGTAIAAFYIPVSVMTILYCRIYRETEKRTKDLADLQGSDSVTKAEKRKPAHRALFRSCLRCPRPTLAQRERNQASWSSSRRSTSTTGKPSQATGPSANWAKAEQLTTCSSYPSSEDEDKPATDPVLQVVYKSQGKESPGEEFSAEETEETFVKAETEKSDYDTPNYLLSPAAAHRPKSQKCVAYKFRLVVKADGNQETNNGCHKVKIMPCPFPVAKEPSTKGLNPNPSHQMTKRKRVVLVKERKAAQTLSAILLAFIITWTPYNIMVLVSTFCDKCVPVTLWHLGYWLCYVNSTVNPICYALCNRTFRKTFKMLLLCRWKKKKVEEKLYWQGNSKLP

D(4) dopamine receptor = target: T3, D(4) dopamine receptor (Homo sapiens, UniProt P21917); assay: as §1, with “DRD4” for “DRD5”
T3 sequence (P21917 whole entry): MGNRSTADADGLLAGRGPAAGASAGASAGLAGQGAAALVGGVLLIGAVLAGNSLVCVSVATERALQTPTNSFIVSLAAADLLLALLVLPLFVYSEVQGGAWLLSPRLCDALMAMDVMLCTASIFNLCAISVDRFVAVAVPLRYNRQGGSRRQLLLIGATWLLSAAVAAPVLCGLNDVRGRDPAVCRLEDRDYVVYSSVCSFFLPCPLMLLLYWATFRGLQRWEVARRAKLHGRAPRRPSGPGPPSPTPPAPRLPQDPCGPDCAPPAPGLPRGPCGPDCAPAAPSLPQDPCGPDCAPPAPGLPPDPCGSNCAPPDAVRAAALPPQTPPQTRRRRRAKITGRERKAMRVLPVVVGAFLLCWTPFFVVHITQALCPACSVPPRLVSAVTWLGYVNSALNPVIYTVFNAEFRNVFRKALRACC

[9] = target: Sodium-dependent serotonin transporter (Homo sapiens, UniProt P31645); assay: as §1, with “SLC6A4” for “DRD5”
Sequence of Sodium-dependent serotonin transporter (P31645 whole entry): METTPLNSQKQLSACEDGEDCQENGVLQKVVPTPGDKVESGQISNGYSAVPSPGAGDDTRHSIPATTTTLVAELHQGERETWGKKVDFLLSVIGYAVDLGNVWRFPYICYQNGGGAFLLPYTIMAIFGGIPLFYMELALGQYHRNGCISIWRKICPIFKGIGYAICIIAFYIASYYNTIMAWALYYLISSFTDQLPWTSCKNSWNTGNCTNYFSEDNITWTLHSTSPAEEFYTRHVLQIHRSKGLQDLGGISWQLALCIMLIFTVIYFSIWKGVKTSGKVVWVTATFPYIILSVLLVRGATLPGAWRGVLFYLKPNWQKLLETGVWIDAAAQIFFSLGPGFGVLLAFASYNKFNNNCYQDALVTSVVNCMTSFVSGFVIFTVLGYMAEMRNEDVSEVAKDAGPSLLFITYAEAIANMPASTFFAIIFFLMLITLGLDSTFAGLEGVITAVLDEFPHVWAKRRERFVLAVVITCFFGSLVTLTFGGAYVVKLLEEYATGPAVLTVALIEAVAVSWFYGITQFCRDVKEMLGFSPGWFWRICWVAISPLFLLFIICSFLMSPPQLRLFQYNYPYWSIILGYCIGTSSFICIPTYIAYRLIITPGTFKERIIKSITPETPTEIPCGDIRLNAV

[10] = target: T4, Alpha-2A adrenergic receptor (Homo sapiens, UniProt P08913); assay: as §1, with “ADRA2A” for “DRD5”
T4 sequence (P08913 whole entry): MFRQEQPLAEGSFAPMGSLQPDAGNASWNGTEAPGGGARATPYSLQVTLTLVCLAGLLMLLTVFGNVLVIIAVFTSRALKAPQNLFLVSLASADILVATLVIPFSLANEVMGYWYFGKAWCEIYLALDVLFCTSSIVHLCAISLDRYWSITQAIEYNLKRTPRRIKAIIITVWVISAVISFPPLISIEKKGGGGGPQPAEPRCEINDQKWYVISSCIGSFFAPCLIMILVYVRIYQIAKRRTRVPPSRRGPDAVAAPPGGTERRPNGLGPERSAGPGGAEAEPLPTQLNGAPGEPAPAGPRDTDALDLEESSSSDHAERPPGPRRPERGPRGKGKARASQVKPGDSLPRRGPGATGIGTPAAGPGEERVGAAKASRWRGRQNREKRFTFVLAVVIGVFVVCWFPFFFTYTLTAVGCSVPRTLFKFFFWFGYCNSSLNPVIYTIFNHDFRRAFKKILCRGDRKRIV

[11] = target: T5, Alpha-2B adrenergic receptor (Homo sapiens, UniProt P18089); assay: as §1, with “ADRA2B” for “DRD5”
T5 sequence (P18089 whole entry): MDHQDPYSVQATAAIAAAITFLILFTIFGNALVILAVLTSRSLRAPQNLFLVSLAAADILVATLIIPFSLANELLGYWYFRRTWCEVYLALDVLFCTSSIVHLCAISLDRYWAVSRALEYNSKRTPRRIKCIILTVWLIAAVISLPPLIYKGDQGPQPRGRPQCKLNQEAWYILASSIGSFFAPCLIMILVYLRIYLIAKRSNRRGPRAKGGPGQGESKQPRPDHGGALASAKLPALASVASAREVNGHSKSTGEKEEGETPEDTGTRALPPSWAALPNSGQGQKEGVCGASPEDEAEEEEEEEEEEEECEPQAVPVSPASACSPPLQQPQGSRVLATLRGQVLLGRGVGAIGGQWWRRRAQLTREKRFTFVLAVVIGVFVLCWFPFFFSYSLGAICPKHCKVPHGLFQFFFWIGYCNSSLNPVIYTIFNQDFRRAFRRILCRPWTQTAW

D(3) dopamine receptor = D(3) dopamine receptor (Homo sapiens, UniProt P35462); assay: as §1, with “DRD3” for “DRD5”
Translocator protein = Translocator protein (Homo sapiens, UniProt P30536); assay: as §1, with “TSPO” for “DRD5”
Sequence of Translocator protein (P30536 whole entry): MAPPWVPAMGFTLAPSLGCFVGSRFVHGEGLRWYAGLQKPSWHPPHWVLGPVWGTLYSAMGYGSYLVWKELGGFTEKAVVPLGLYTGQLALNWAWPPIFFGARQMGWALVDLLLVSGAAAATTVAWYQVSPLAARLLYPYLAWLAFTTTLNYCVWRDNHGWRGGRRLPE

D(2) dopamine receptor = D(2) dopamine receptor (Homo sapiens, UniProt P14416); assay: as §1, with “DRD2” for “DRD5”
Sequence of D(2) dopamine receptor (P14416 whole entry): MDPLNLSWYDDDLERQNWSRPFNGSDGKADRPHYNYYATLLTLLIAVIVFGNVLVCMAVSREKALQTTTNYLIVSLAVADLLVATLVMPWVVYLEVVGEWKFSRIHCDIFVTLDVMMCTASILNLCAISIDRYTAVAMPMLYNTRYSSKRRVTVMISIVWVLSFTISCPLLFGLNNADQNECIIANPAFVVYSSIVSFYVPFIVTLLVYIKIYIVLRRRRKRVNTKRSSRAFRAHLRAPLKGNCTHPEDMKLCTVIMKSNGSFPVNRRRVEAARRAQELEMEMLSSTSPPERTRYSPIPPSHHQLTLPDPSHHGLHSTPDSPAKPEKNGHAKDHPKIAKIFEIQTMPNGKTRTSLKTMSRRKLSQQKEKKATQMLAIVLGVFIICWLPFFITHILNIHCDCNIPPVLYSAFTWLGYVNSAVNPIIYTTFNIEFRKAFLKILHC

[12] = target: 5-hydroxytryptamine receptor 1B (Homo sapiens, UniProt P28222); assay: as §1, with “HTR1B” for “DRD5”
Sequence of 5-hydroxytryptamine receptor 1B (P28222 whole entry): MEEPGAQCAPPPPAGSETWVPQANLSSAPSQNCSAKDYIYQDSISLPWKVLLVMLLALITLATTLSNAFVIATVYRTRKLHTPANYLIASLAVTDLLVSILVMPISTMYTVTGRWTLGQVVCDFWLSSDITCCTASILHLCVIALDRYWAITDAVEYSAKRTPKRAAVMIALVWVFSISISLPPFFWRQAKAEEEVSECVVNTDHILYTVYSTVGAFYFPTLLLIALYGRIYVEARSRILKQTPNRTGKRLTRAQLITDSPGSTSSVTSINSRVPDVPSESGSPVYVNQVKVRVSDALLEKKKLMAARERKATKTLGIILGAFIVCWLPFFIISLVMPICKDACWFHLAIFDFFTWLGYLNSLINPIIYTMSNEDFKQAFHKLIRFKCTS

[13] = target: 5-hydroxytryptamine receptor 5A (Homo sapiens, UniProt P47898); assay: as §1, with “HTR5A” for “DRD5”
[14] = target: 5-hydroxytryptamine receptor 7 (Homo sapiens, UniProt P34969); assay: as §1, with “HTR7” for “DRD5”
[15] = target: Sigma non-opioid intracellular receptor 1 (Homo sapiens, UniProt Q99720); assay: as §1, with “SIGMAR1” for “DRD5”
Sequence of Sigma non-opioid intracellular receptor 1 (Q99720 whole entry): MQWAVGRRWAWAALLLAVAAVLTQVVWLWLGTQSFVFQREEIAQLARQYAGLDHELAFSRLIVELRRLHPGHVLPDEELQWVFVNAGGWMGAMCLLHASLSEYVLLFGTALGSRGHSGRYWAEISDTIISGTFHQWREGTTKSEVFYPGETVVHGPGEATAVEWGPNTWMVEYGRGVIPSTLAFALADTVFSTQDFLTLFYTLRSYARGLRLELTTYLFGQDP

[16] = target: T6, Alpha-2C adrenergic receptor (Homo sapiens, UniProt P18825); assay: as §1, with “ADRA2C” for “DRD5”
T6 sequence (P18825 whole entry): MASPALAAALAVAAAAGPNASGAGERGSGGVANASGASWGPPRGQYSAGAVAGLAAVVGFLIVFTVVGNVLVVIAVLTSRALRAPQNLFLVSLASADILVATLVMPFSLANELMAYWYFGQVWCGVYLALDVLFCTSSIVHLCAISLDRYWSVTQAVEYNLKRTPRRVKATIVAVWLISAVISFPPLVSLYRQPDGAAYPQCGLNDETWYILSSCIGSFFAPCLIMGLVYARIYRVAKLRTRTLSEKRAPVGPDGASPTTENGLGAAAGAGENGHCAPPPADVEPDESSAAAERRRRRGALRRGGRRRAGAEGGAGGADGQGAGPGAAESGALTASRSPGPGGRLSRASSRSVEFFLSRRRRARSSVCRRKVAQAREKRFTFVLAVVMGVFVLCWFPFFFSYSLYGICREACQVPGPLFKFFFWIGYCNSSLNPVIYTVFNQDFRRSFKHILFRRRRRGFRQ

Histamine H1 receptor = Histamine H1 receptor (Homo sapiens, UniProt P35367); assay: as §1, with “HRH1” for “DRD5”

O=C(c1cc2c(cc1F)OC(c1ccc(F)cc1)(c1ccc(Cl)cc1Cl)O2)N1CCOCC1 (stereo unspecified)
Ki (D(1B) dopamine receptor): 0.708 µM | Ki [1]: 2.54 µM | Ki [2]: 3.46 µM | Ki [3]: 0.509 µM | Ki [4]: 0.503 µM | Ki (Mu-type opioid receptor): 3.14 µM | Ki [5]: 0.607 µM | Ki [6]: 0.319 µM | Ki [7]: 2.66 µM

OC1(c2ccc(Cl)cc2)CCN(Cc2c[nH]c3ccccc23)CC1
Ki [8]: 0.579 µM | Ki [1]: 1.47 µM | Ki [2]: 1.4 µM | Ki [3]: 0.269 µM | Ki (D(4) dopamine receptor): 0.569 µM | Ki (Mu-type opioid receptor): 0.0515 µM | Ki [9]: 0.0295 µM | Ki [10]: 3.85 µM | Ki [11]: 0.602 µM | Ki (D(3) dopamine receptor): 0.205 µM

O=c1ccn([C@@H]2O[C@H](COP(=O)(O)OP(=O)(O)OP(=O)(O)O)[C@@H](O)[C@H]2O)c(=O)[nH]1
Ki (D(4) dopamine receptor): 8.73 µM | Ki (Translocator protein): 4.78 µM | Ki (D(2) dopamine receptor): 3.85 µM

COc1ccccc1N1CCN(CCCCNC(=O)c2ccc3ccccc3c2)CC1
Ki [12]: 0.166 µM | Ki [13]: 0.754 µM | Ki [14]: 0.0298 µM | Ki [1]: 1.67 µM | Ki [2]: 0.734 µM | Ki [3]: 0.113 µM | Ki [15]: 0.256 µM | Ki (Mu-type opioid receptor): 0.249 µM | Ki [9]: 0.304 µM | Ki [11]: 0.132 µM | Ki [16]: 0.0836 µM | Ki (Histamine H1 receptor): 0.125 µM | Ki (Translocator protein): 1.18 µM

CC(C)(C(=O)O)c1ccc(C(O)CCCN2CCC(C(O)(c3ccccc3)c3ccccc3)CC2)cc1 (stereo unspecified) [FEXOFENADINE HYDROCHLORIDE]
Ki (D(2) dopamine receptor): 8.81 µM

OC[C@H]1O[C@@H](n2cnc3c(NC4CCCC4)ncnc32)[C@H](O)[C@@H]1O [N6-CYCLOPENTYLADENOSINE]
Ki (D(1B) dopamine receptor): > 10 µM | Ki [15]: 2.61 µM

Cc1cc(NC(=O)NCCN2CCC(O)(Cc3ccccc3)CC2)c2ccccc2n1 [PALOSURAN]
Ki [1]: 1.09 µM | Ki [3]: 0.956 µM | Ki [15]: 1.7 µM | Ki [9]: 0.995 µM | Ki [10]: 1.02 µM | Ki [6]: 0.139 µM | Ki [7]: 1.59 µM | Ki (D(2) dopamine receptor): 0.596 µM
